# System: Splenocyte
# Test: Inhibition of IL5 production in mouse splenocyte model of allergic inflammation at 10 ug/ml
# Format: functional
smiles,measurement,value
CC[C@@H](O)[C@@H](C)/C=C(C)/C=C/c1oc(=O)c(C)c(O)c1C [SALINIPYRONE A],inhibition at 10 µg/mL,50%
